Results taken from PMC6220787 (Clinical Pharmacology in Drug Development, 2018).
Where two headings read alike, the source gives them in different places.

Columns and labels:
[1] = Pharmacokinetics of chlorogenic acids; format: in vivo, human; conditions: for AUC0–4 h / tmax: analyte in blood after product 1, oral, healthy male subjects; for AUC0–4 h: mean (SD); for tmax: median (min, max)
[2] = format: in vivo, human
[3] = 60 mg of caffeine, single oral dose, healthy male subjects
[4] = analytical recovery test in plasma; cited from earlier work
[5] = cited from earlier work
[6] = healthy subjects, 412 μmol of CGA in 200 mL of coffee; cited from earlier work
[7] = after product 1, relative to 4‐CQA
[8] = after product 1, relative to 5‐CQA

Compound: O=C(/C=C/c1ccc(O)c(O)c1)O[C@@H]1C[C@](O)(C(=O)O)C[C@@H](O)[C@H]1O [3‐CQA, 3‐O‐caffeoylquinic acid]
- AUC0–4 h greater than that of 4‐CQA [1, 7]: ~41%
- concentration (Cmax) greater than that of 4‐CQA [1, 7]: 60%
- AUC0–4 h greater than that of 5‐CQA [1, 8]: 42.5%
- concentration (Cmax) greater than that of 5‐CQA [1, 8]: 58%

Compound: Cn1c(=O)c2c(ncn2C)n(C)c1=O [Product 2, caffeine]
- GMR (90%CI) of AUC0–4 h of caffeine ([2]; geometric least‐squares mean ratio, product 1 to product 2): 98.33%
- AUC(0-t) ([2]; male, human, serum, oral, 60 mg): 5600 ng·h/mL
- Cmax ([2]; male, human, serum, po, 60 mg): 2090 ng/mL
- tmax ([2]; male, human, serum, po, 60 mg): 0.63 h
- adverse events [3]: no adverse events

Compound: O=C(/C=C/c1ccc(O)c(O)c1)O[C@H]1[C@H](O)C[C@](O)(C(=O)O)C[C@H]1O [4‐CQA, 4‐O‐caffeoylquinic acid]
- AUC0–4 h [1]: 16.1 (9.80) ng·h/mL
- tmax [1]: 1.00 (0.75, 4.00) h

Compound: O=C(/C=C/c1ccc(O)c(O)c1)O[C@@H]1C[C@](O)(C(=O)O)C[C@@H](O)[C@H]1O [5‐CQA, 5‐O‐caffeoylquinic acid]
- hydrolyzed into caffeic acid [4]: ~7%
- AUC0–4 h [1]: 15.7 (10.4) ng·h/mL
- tmax [1]: 1.50 (0.75, 2.50) h

Compound: Cn1c(=O)c2c(ncn2C)n(C)c1=O [caffeine]
- caffeine half‐life ([5]; adult men, dose of 4 mg/kg): 2.5 to 4.5 h
- mean half‐life of caffeine in plasma ([5]; healthy individuals): about 5 hours
- known half‐life of caffeine ([5]; stated as known): ~5 h
- known tmax of caffeine ([5]; stated as known): approximately 60 minutes

Compound: COc1cc(CCC(=O)O)ccc1O [dihydroferulic acid]
- tmax in plasma [6]: 5.2 h
